Key:
Nav 1.5 = Nav 1.5 (Homo sapiens (Human), UniProt Q14524); test: Nav 1.5 in vitro PX assay (PatchXpress whole cell voltage clamp); assay type: cell-based; conditions: 293 cells stably transfected with Nav 1.5; second part of table; read-out: Nav1.5 PX IC50
Method: Nav 1.5 In Vitro PX Assay
293 cells stably transfected with Nav 1.5 were recorded in whole cell voltage clamp mode with the PatchXpress automated electrophysiology system according the manufacturer's specifications (Molecular Devices, LLC, Sunnyvale, Calif.). Cells were held at a holding potential of −50 mV to inactivate sodium channels. To elicit sodium currents the voltage was changed to −120 mV to recover a portion of the channels, followed by delivery of test pulses of 20 msec duration to 0 mV, at 0.1 Hz. A single concentration of test compound was applied to cells for a duration of 5 minutes. Peak sodium current was measured at the end of the compound addition period to determine percent inhibition. A minimum of two cells were tested per concentration. IC50 curves were fitted to percent inhibition as a function of concentration.

Nav 1.7 = Nav 1.7 (Homo sapiens (Human), UniProt Q15858); test: Nav 1.7 in vitro PX assay (PatchXpress whole cell voltage clamp); assay type: cell-based; conditions: 293 cells, human Nav1.7, partially inactivated state; read-out: Nav1.7 PX IC50 IP
Chain of Nav 1.7 (Q15858 whole entry): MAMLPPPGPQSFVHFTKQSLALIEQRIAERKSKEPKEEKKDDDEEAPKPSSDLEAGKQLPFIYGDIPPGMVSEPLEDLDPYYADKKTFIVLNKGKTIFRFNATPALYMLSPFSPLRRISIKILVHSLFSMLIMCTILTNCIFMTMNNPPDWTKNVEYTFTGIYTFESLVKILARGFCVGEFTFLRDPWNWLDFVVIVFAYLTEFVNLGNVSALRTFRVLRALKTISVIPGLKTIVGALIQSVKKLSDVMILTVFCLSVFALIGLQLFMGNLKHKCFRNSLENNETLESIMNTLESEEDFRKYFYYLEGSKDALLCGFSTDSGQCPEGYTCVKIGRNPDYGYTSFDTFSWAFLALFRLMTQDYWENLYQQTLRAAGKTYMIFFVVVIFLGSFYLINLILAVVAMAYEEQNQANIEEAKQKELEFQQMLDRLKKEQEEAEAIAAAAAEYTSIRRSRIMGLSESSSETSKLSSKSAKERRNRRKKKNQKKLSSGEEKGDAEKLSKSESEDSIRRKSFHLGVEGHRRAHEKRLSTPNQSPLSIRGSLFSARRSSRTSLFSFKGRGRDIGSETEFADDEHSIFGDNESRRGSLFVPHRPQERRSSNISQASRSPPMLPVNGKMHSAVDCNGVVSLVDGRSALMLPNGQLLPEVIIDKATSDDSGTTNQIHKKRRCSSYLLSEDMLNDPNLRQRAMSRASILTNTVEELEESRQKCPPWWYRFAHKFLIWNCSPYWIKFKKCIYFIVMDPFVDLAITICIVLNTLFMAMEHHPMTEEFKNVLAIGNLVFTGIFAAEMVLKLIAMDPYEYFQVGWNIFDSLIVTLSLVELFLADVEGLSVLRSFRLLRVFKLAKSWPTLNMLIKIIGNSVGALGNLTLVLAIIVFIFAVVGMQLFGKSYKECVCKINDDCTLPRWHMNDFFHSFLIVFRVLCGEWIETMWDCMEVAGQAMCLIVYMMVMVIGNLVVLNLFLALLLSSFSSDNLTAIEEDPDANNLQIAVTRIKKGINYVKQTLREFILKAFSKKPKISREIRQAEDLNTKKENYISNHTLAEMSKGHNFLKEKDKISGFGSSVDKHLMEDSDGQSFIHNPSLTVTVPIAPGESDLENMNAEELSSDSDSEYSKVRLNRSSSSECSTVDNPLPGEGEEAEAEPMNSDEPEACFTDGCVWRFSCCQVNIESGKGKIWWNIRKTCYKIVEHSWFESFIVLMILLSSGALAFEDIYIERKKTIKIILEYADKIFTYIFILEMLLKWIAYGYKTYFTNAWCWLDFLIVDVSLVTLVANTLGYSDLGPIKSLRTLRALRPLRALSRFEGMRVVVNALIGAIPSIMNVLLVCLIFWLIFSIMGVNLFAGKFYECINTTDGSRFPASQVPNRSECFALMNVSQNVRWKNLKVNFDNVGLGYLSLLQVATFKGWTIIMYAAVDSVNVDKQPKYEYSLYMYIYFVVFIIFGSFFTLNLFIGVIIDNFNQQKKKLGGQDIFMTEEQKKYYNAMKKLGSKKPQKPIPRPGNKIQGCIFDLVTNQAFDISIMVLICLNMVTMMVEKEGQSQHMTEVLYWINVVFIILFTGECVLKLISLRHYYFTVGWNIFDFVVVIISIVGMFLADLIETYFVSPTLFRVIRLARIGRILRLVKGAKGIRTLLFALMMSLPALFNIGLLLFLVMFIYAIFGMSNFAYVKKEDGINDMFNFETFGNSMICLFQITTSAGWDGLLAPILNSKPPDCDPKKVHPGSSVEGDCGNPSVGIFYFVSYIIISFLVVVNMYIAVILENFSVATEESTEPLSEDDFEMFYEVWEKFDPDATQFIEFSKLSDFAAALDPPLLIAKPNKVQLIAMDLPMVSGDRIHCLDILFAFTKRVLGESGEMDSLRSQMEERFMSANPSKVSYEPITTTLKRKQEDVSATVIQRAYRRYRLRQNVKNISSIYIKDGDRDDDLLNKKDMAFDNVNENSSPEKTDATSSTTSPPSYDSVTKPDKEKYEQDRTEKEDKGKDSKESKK
How it was run: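 HEK293 cells stably expressing human Nav1.7, whole-cell voltage clamp on PatchXpress, held at potential giving 20–50% inactivation; current elicited by 20 msec pulse to −10 mV.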

Chain of Nav 1.5 (Q14524 whole entry): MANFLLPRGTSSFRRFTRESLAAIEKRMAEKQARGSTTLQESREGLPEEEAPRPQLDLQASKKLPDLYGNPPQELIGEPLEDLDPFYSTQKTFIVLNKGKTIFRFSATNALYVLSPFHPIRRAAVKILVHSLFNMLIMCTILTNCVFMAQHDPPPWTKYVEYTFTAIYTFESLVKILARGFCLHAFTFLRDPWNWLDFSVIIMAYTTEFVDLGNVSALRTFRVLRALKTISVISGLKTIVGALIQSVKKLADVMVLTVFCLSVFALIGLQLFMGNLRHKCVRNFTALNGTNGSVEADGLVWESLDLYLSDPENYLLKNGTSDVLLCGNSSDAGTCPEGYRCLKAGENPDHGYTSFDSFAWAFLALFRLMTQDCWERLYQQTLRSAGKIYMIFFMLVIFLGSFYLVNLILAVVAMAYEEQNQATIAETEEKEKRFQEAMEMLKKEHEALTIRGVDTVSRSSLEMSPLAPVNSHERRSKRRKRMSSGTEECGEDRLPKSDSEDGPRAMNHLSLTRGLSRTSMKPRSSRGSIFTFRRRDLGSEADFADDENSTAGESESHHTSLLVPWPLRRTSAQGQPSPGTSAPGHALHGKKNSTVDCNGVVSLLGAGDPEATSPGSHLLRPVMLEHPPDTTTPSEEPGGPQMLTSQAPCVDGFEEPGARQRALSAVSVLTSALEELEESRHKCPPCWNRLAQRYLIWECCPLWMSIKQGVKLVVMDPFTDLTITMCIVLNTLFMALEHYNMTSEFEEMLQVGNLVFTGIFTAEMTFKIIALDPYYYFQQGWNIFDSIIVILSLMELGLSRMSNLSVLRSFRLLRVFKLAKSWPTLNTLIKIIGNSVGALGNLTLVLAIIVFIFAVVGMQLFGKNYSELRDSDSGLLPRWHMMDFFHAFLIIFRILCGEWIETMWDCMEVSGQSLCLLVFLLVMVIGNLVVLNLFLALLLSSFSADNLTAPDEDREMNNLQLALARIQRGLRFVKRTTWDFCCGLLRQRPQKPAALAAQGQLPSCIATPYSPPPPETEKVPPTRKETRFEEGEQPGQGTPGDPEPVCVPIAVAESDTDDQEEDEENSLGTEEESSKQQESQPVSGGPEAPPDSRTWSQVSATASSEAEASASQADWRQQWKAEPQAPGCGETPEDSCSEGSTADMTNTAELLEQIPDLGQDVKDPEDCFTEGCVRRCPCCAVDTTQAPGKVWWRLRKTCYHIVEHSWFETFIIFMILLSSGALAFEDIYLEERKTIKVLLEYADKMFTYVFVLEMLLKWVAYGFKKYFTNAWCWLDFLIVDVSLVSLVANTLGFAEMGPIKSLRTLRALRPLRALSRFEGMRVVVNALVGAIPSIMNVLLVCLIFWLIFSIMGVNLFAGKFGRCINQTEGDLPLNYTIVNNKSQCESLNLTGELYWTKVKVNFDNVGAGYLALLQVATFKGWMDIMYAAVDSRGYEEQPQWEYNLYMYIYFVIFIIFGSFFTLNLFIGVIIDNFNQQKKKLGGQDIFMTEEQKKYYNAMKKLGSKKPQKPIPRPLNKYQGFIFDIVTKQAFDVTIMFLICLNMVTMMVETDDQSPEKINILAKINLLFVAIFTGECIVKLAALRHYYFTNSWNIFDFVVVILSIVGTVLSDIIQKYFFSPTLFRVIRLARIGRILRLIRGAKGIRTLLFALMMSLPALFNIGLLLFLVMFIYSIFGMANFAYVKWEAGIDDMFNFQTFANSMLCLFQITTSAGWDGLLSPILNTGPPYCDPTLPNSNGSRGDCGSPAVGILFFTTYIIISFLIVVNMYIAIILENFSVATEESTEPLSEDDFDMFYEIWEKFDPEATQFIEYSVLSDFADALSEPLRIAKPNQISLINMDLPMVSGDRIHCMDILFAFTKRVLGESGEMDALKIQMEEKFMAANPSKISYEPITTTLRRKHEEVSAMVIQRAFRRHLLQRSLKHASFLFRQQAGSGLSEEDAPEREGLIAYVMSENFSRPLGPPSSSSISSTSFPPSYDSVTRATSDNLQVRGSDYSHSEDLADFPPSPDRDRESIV

| SMILES | IC50 (Nav 1.5) | IC50 (Nav 1.7) |
| --- | --- | --- |
| COc1cc(-c2cc(F)cc(F)c2)c(C#N)cc1-c1nccc2cc(S(=O)(=O)Nc3ccon3)ccc12 [Example 343, 1-(2-CYANO-3′,5′-DIFLUORO-5-METHOXY-[1,1′-BIPHENYL]-4-YL)-N-(ISOXAZOL-3-YL)ISOQUINOLINE-6-SULFONAMIDE] | > 30000 nM | 145 nM |
| COc1cc(-c2cccc(F)c2)ccc1-c1nccc2cc(S(=O)(=O)Nc3nncs3)ccc12 [Example 354, 1-(3′-FLUORO-3-METHOXY-[1,1′-BIPHENYL]-4-YL)-N-(1,3,4-THIADIAZOL-2-YL)ISOQUINOLINE-6-SULFONAMIDE 2,2,2-TRIFLUOROACETATE] | > 30000 nM | 110 nM |
| COc1cc(F)cc(-c2ccc(-c3nccc4cc(S(=O)(=O)Nc5ccncn5)ccc34)c(OC)c2)c1 [Example 485, 1-(3′-FLUORO-3,5′-DIMETHOXY-[1,1′-BIPHENYL]-4-YL)-N-(PYRIMIDIN-4-YL)ISOQUINOLINE-6-SULFONAMIDE] | > 30000 nM | 128 nM |
| COc1ccc(Cl)cc1-c1n[nH]c(=O)c2cc(S(=O)(=O)Nc3ncc(F)s3)ccc12 [Example 507, 1-(5-CHLORO-2-METHOXYPHENYL)-N-(5-FLUOROTHIAZOL-2-YL)-4-OXO-3,4-DIHYDROPHTHALAZINE-6-SULFONAMIDE] | > 30000 nM | 177 nM |
| COc1nc(-c2cccc(F)c2)c(Cl)cc1-c1nccc2cc(S(=O)(=O)Nc3nncs3)ccc12 [Example 498, 1-(5-CHLORO-6-(3-FLUOROPHENYL)-2-METHOXYPYRIDIN-3-YL)-N-(1,3,4-THIADIAZOL-2-YL)ISOQUINOLINE-6-SULFONAMIDE] | > 30000 nM | 760 nM |
| COc1cc(Cl)ccc1-c1ccc(-c2nccc3cc(S(=O)(=O)Nc4ccncn4)ccc23)c(OC)c1 [Example 460, 1-(4′-CHLORO-2′,3-DIMETHOXY-[1,1′-BIPHENYL]-4-YL)-N-(PYRIMIDIN-4-YL)ISOQUINOLINE-6-SULFONAMIDE] | > 30000 nM | 106 nM |
| COc1cc(Cl)c(Cl)cc1-c1nccc2cc(S(=O)(=O)Nc3nccs3)ccc12 [Example 177, 1-(4,5-DICHLORO-2-METHOXYPHENYL)-N-(THIAZOL-2-YL)ISOQUINOLINE-6-SULFONAMIDE] | > 30000 nM | 500 nM |
| COc1cc(-c2cccc(C(F)(F)F)c2)c(C#N)cc1-c1nccc2cc(S(=O)(=O)Nc3nncs3)ccc12 [Example 339, 1-(2-CYANO-5-METHOXY-3′-(TRIFLUOROMETHYL)-[1,1′-BIPHENYL]-4-YL)-N-(1,3,4-THIADIAZOL-2-YL)ISOQUINOLINE-6-SULFONAMIDE] | > 30000 nM | 31 nM |
| COc1cc(-c2cc(F)cc(F)c2)ccc1-c1nccc2cc(S(=O)(=O)Nc3ccncn3)ccc12 [Example 449, 1-(3′,5′-DIFLUORO-3-METHOXY-[1,1′-BIPHENYL]-4-YL)-N-(PYRIMIDIN-4-YL)ISOQUINOLINE-6-SULFONAMIDE] | > 30000 nM | 34 nM |
| COc1cc(-c2cc(F)cc(F)c2)c(F)cc1-c1nccc2cc(S(=O)(=O)Nc3nncs3)ccc12 [Example 364, N-(1,3,4-THIADIAZOL-2-YL)-1-(2,3′,5′-TRIFLUORO-5-METHOXY-[1,1′-BIPHENYL]-4-YL)ISOQUINOLINE-6-SULFONAMIDE] | > 30000 nM | 36 nM |
| COc1cc(-c2ccccc2C)ccc1-c1nccc2cc(S(=O)(=O)Nc3ccncn3)ccc12 [Example 441, 1-(3-METHOXY-2′-METHYL-[1,1′-BIPHENYL]-4-YL)-N-(PYRIMIDIN-4-YL)ISOQUINOLINE-6-SULFONAMIDE] | > 30000 nM | 77 nM |
| COc1cc(Cl)ccc1-c1ncnc2cc(S(=O)(=O)Nc3ncns3)ccc12 [Example 524, 4-(4-CHLORO-2-METHOXYPHENYL)-N-(1,2,4-THIADIAZOL-5-YL)QUINAZOLINE-7-SULFONAMIDE] | > 30000 nM | 100 nM |
| COc1cc(C(F)(F)F)ccc1-c1ncc(F)c2cc(S(=O)(=O)Nc3ncns3)ccc12 [Example 392, 4-FLUORO-1-(2-METHOXY-4-(TRIFLUOROMETHYL)PHENYL)-N-(1,2,4-THIADIAZOL-5-YL)ISOQUINOLINE-6-SULFONAMIDE] | > 30000 nM | 111 nM |
| COc1cc(-c2cc(F)cc(C#N)c2)ccc1-c1nccc2cc(S(=O)(=O)Nc3ccncn3)ccc12 [Example 487, 1-(3′-CYANO-5′-FLUORO-3-METHOXY-[1,1′-BIPHENYL]-4-YL)-N-(PYRIMIDIN-4-YL)ISOQUINOLINE-6-SULFONAMIDE] | > 30000 nM | 287 nM |
| COc1cc(Oc2ccc(F)cc2)ccc1-c1nccc2cc(S(=O)(=O)Nc3ccncn3)ccc12 [Example 462, 1-(4-(4-FLUOROPHENOXY)-2-METHOXYPHENYL)-N-(PYRIMIDIN-4-YL)ISOQUINOLINE-6-SULFONAMIDE] | > 30000 nM | 203 nM |
| COc1cc(C(F)F)c(F)cc1-c1ncnc2cc(S(=O)(=O)Nc3nccs3)ccc12 [Example 512, 4-(4-(DIFLUOROMETHYL)-5-FLUORO-2-METHOXYPHENYL)-N-(THIAZOL-2-YL)QUINAZOLINE-7-SULFONAMIDE] | > 30000 nM | 234 nM |
| COc1cc(-c2cc(F)cc(F)c2)ccc1-c1nccc2cc(S(=O)(=O)Nc3ccnc(C)n3)ccc12 [Example 370, 1-(3′,5′-DIFLUORO-3-METHOXY-[1,1′-BIPHENYL]-4-YL)-N-(2-METHYLPYRIMIDIN-4-YL)ISOQUINOLINE-6-SULFONAMIDE] | > 30000 nM | 813 nM |
| COc1cc(-c2cccc(F)c2F)ccc1-c1nccc2cc(S(=O)(=O)Nc3ccncn3)ccc12 [Example 444, 1-(2′,3′-difluoro-3-methoxy-[1,1′-biphenyl]-4-yl)-N-(pyrimidin-4-yl)isoquinoline-6-sulfonamide] | > 30000 nM | 185 nM |
| COc1cc(F)ccc1-c1nccc2cc(S(=O)(=O)Nc3nccs3)ccc12 [Example 405, 1-(4-FLUORO-2-METHOXYPHENYL)-N-(THIAZOL-2-YL)ISOQUINOLINE-6-SULFONAMIDE] | > 30000 nM | 442 nM |
| COc1cc(-c2ccc(F)c(F)c2)ccc1-c1nccc2cc(S(=O)(=O)Nc3ccncn3)ccc12 [Example 448, 1-(3′,4′-DIFLUORO-3-METHOXY-[1,1′-BIPHENYL]-4-YL)-N-(PYRIMIDIN-4-YL)ISOQUINOLINE-6-SULFONAMIDE] | > 30000 nM | 38 nM |
| COc1ccc(-c2cccc(F)c2)cc1-c1n[nH]c(=O)c2cc(S(=O)(=O)Nc3ccncn3)ccc12 [Example 509, 1-(3′-FLUORO-4-METHOXY-[1,1′-BIPHENYL]-3-YL)-4-OXO-N-(PYRIMIDIN-4-YL)-3,4-DIHYDROPHTHALAZINE-6-SULFONAMIDE] | > 30000 nM | 218 nM |
| N#CCOc1cc(Cl)ccc1-c1nccc2cc(S(=O)(=O)Nc3nccs3)ccc12 [Example 373, 1-(4-CHLORO-2-(CYANOMETHOXY)PHENYL)-N-(THIAZOL-2-YL)ISOQUINOLINE-6-SULFONAMIDE 2,2,2-TRIFLUOROACETATE] | > 30000 nM | 153 nM |
| COc1cc(-c2cc(F)cc(F)c2)ccc1-c1nccc2cc(S(=O)(=O)Nc3cc(C)ncn3)ccc12 [Example 371, 1-(3′,5′-DIFLUORO-3-METHOXY-[1,1′-BIPHENYL]-4-YL)-N-(6-METHYLPYRIMIDIN-4-YL)ISOQUINOLINE-6-SULFONAMIDE] | > 30000 nM | 545 nM |
| COc1cc(-c2ccc(F)c(C)c2)ccc1-c1nccc2cc(S(=O)(=O)Nc3ccncn3)ccc12 [Example 488, 1-(4′-FLUORO-3-METHOXY-3′-METHYL-[1,1′-BIPHENYL]-4-YL)-N-(PYRIMIDIN-4-YL)ISOQUINOLINE-6-SULFONAMIDE] | > 30000 nM | 99 nM |
| COc1cc(C(F)F)c(Cl)cc1-c1ncnc2cc(S(=O)(=O)Nc3nccs3)ccc12 [Example 270, 4-(5-CHLORO-4-(DIFLUOROMETHYL)-2-METHOXYPHENYL)-N-(THIAZOL-2-YL)QUINAZOLINE-7-SULFONAMIDE] | 7440 nM | 150 nM |
| COc1cc(-c2cccc(F)c2)c(Cl)cc1-c1nccc2cc(S(=O)(=O)Nc3nncs3)ccc12 [Example 332, 1-(2-CHLORO-3′-FLUORO-5-METHOXY-[1,1′-BIPHENYL]-4-YL)-N-(1,3,4-THIADIAZOL-2-YL)ISOQUINOLINE-6-SULFONAMIDE] | 20700 nM | 28 nM |
| COc1cc(-c2cc(F)ccc2F)ccc1-c1nccc2cc(S(=O)(=O)Nc3ccncn3)ccc12 [Example 446, 1-(2′,5′-DIFLUORO-3-METHOXY-[1,1′-BIPHENYL]-4-YL)-N-(PYRIMIDIN-4-YL)ISOQUINOLINE-6-SULFONAMIDE] | > 30000 nM | 152 nM |
| COc1cc(-c2ccc(F)cc2)ccc1-c1nccc2cc(S(=O)(=O)Nc3ccncn3)ccc12 [Example 350, 1-(4′-FLUORO-3-METHOXY-[1,1′-BIPHENYL]-4-YL)-N-(PYRIMIDIN-4-YL)ISOQUINOLINE-6-SULFONAMIDE] | > 30000 nM | 161 nM |
| COc1nc(-c2cccc(F)c2)ccc1-c1nccc2cc(S(=O)(=O)Nc3ccncn3)ccc12 [Example 363, 1-(6-(3-FLUOROPHENYL)-2-METHOXYPYRIDIN-3-YL)-N-(PYRIMIDIN-4-YL)ISOQUINOLINE-6-SULFONAMIDE] | > 30000 nM | 540 nM |
| COc1cc(Cl)c(C#N)cc1-c1nccc2cc(S(=O)(=O)Nc3nncs3)ccc12 [Example 337, 1-(4-CHLORO-5-CYANO-2-METHOXYPHENYL)-N-(1,3,4-THIADIAZOL-2-YL)ISOQUINOLINE-6-SULFONAMIDE] | > 30000 nM | 388 nM |
